Reference: patent US8178548B2, “Anti-infective agents and uses thereof” (priority 2007, dated 2012)
Like-named read-outs stand apart in the source and are kept apart here.

Key:
[1] = target: T1, HCV polymerase 1B (Δ21 NS5B, HCV Strain 1B BK) (Hepatitis C virus genotype 1b, UniProt P26663); assay: biochemical
T1 construct: 20 to 50 nM Δ21 NS5B
Method: (§1) Either two-fold serial dilutions (fractional inhibition assay) or a narrower range of dilutions spanning the IC50 of the inhibitor (tight binding assay) of the inhibitors were incubated with 20 mM Tris-Cl pH 7.4, 2 mM MnCl2, 1 mM dithiothreitol, 1 mM ethylene diamine tetraacetic acid (EDTA), 60 to 125 μM GTP and 20 to 50 nM Δ21 NS5B (HCV Strain 1B (BK, Genbank accession number M58335, or H77, Genbank accession number AF011751)) for 15 min at room temperature. The reaction was initiated by the addition of 20 μM CTP, 20 μM ATP, 1 μM ^3H-UTP (10 mCi/umol), 5 nM template RNA and 0.1 U/μl RNase inhibitor (RNasin, Promega), and allowed to proceed for 2 to 4 h at room temperature. Reaction volume was 50 μl. The reaction was terminated by the addition of 1 volume of 4 mM spermine in 10 mM Tris-Cl pH 8.0, 1 mM EDTA. After incubation for at least 15 min at room temperature, the precipitated RNA was captured by filtering through a GF/B filter (Millipore) in a 96 well format. The filter plate was washed three times with 200 μl each of 2 mM spermine, 10 mM Tris-Cl pH 8.0, 1 mM EDTA, and 2 times with ethanol. After air-drying, 30 μl of Microscint 20 scintillation cocktail (Packard) was added to each well, and the retained cpm were determined by scintillation counting. […] Retained cpm were plotted vs. inhibitor concentration and fit to equation 1 using non-linear regression (ref. 1) to obtain the IC50 values: Retained cpm=A[sqrt{(IC50+It−Et)^2+4*IC50*Et}−(IC50+It−Et)]
(§2) Ref. Morrison, J. F. and S. R. Stone. 1985. Approaches to the study and analysis of the inhibition of enzymes by slow- and tight-binding inhibitors. Comments Mol. Cell. Biophys. 2: 347-368.
(§3) The sequence of the template RNA used was: 5′-[…] […] […] […] […] […] […] […] […] […] […] […] […] […] […] […] […]-3′ (SEQ ID NO:1).

[2] = target: T2, HCV polymerase 1A (Δ21 NS5B, H77) (Hepatitis C virus genotype 1a, UniProt P27958); assay: biochemical
T2 construct: 20 to 50 nM Δ21 NS5B
Method: as §1, §2, §3

[3] = tested on: genotype 1a-H77 subgenomic replicon cell line; assay: HCV Polymerase Replicon Assay, genotype 1a-H77 (luciferase reporter); assay type: cell-based; details: read-out: EC50 1a
[4] = tested on: genotype 1b-Con1 subgenomic replicon cell line; assay: HCV Polymerase Replicon Assay, genotype 1b-Con1 (luciferase reporter); assay type: cell-based; details: read-out: EC50 1b
[5] = Hepatitis C virus, 72 h, replicon 1a-H77, luciferase, three days
[6] = Hepatitis C virus, 72 h, replicon 1b-Con1, luciferase, three days

T1 sequence (P26663 2420-2989, stated change not applied): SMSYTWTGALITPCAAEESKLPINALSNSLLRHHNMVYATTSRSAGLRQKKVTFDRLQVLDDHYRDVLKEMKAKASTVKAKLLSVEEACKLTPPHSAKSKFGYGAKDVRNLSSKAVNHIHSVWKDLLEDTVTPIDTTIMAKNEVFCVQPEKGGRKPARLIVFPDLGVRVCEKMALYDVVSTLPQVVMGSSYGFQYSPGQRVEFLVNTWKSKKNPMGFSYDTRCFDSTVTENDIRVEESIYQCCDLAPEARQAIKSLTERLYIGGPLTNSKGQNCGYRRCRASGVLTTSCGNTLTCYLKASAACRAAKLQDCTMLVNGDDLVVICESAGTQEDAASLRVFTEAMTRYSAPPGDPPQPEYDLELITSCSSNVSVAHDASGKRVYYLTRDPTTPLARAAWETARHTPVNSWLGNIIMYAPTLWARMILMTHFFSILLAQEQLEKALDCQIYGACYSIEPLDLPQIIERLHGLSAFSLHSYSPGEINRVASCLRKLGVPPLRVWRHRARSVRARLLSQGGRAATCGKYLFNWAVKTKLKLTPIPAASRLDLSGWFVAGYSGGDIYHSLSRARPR
T2 sequence (P27958 2421-2990, stated change not applied): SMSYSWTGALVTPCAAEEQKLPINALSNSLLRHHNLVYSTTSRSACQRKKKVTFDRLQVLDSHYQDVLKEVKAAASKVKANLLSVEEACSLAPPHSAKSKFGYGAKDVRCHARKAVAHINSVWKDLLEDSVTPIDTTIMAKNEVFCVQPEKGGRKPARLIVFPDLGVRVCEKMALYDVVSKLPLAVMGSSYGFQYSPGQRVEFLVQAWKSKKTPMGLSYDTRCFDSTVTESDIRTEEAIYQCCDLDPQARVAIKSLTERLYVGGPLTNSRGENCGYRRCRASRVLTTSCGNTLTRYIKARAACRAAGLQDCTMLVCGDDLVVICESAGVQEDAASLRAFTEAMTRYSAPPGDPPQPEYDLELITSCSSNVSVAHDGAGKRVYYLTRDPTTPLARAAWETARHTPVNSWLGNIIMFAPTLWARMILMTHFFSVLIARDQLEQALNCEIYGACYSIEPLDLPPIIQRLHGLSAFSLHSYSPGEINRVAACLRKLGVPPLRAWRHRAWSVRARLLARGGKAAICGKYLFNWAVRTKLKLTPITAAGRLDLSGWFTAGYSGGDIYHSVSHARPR

COc1cc(NS(C)(=O)=O)ccc1/C=C/c1cc(N2CCC(=O)NC2=O)cc(C(C)(C)C)c1OC [IA-L1-1.27, N-(4-{(E)-2-[3-tert-Butyl-5-(dioxo-tetrahydro-pyrimidin-1-yl)-2-methoxy-phenyl]-vinyl}-3-methoxy-phenyl)-methanesulfonamide]
IC50 ([1]; HCV polymerase 1b, read-out: IC50 1b): 0.01 to 0.1 µM | IC50 ([2]; HCV polymerase 1a, read-out: IC50 1a): < 0.01 µM | EC50 ([3]; replicon 1a-H77, luciferase, three days): 0.01 to 0.1 µM | EC50 ([4]; replicon 1b-Con1, luciferase, three days): < 0.01 µM

COc1c(CCc2ccc(NS(C)(=O)=O)cc2)cc(N2CCC(=O)NC2=O)cc1C(C)(C)C [IA-L5-2-1.1, N-(4-(3-tert-butyl-5-(2,4-dioxotetrahydropyrimidin-1(2H)-yl)-2-methoxyphenethyl)phenyl)methanesulfonamide]
IC50 [1]: 0.01 to 0.1 µM | IC50 [2]: 0.01 to 0.1 µM | EC50 [3, 5]: 0.1 to 1 µM | EC50 [4, 6]: 0.01 to 0.1 µM

CC(C)(C)c1cc(CCc2ccc(NS(C)(=O)=O)cc2)cc(N2CCC(=O)NC2=O)c1 [IA-L5-2-1.2, N-(4-(3-tert-butyl-5-(2,4-dioxotetrahydropyrimidin-1(2H)-yl)phenethyl)phenyl)methane sulfonamide]
IC50 [1]: 0.01 to 0.1 µM | IC50 [2]: 0.01 to 0.1 µM | EC50 [3, 5]: 0.1 to 1 µM | EC50 [4, 6]: 0.1 to 1 µM

COc1c(C2CC2c2ccc(NS(C)(=O)=O)cc2)cc(N2CCC(=O)NC2=O)cc1C(C)(C)C (stereo not shown) [IA-L8-1.1, N-(4-(2-(3-tert-butyl-5-(2,4-dioxotetrahydropyrimidin-1(2H)-yl)-2-methoxyphenyl)cyclopropyl)phenyl)methanesulfonamide]
IC50 [1]: 0.1 to 1 µM | IC50 [2]: 0.1 to 1 µM | EC50 [3, 5]: 0.1 to 1 µM | EC50 [4, 6]: 0.1 to 1 µM

COc1c(/C=C/c2ccc(NS(C)(=O)=O)cc2)cc(-n2ccc(=O)[nH]c2=O)cc1C(C)(C)C [IB-L1-1.1, (E)-N-(4-(3-tert-butyl-5-(2,4-dioxo-3,4-dihydropyrimidin-1(2H)-yl)-2-methoxystyryl)phenyl)methanesulfonamide]
IC50 [1]: < 0.01 µM | IC50 [2]: < 0.01 µM | EC50 ([3]; Hepatitis C virus, 72 h): < 0.01 µM | EC50 ([4]; Hepatitis C virus, 72 h): < 0.01 µM

COc1c(/C=C/c2ccc(NS(C)(=O)=O)cc2C(=O)O)cc(-n2ccc(=O)[nH]c2=O)cc1C(C)(C)C [IB-L1-1.4, (E)-2-(3-tert-butyl-5-(2,4-dioxo-3,4-dihydropyrimidin-1(2H)-yl)-2-methoxystyryl)-5-(methylsulfonamido)benzoic Acid]
IC50 [1]: < 0.01 µM | IC50 [2]: < 0.01 µM | EC50 ([3]; Hepatitis C virus, 72 h): 0.01 to 0.1 µM | EC50 ([4]; Hepatitis C virus, 72 h): < 0.01 µM

COc1c(/C=C/c2ccc(NS(C)(=O)=O)c(F)c2)cc(-n2ccc(=O)[nH]c2=O)cc1C(C)(C)C [IB-L1-1.5, (E)-N-(4-(3-tert-butyl-5-(2,4-dioxo-3,4-dihydropyrimidin-1(2H)-yl)-2-methoxystyryl)-2-fluorophenyl)methanesulfonamide]
IC50 [1]: < 0.01 µM | IC50 [2]: < 0.01 µM | EC50 ([3]; Hepatitis C virus, 72 h): 0.01 to 0.1 µM | EC50 ([4]; Hepatitis C virus, 72 h): < 0.01 µM

COc1c(/C=C/c2ccc(NS(C)(=O)=O)cc2C=O)cc(-n2ccc(=O)[nH]c2=O)cc1C(C)(C)C [IB-L1-1.6, N-(4-{(E)-2-[3-tert-Butyl-5-(2,4-dioxo-3,4-dihydro-2H-pyrimidin-1-yl)-2-methoxy-phenyl]-vinyl}-3-formyl-phenyl)-methanesulfonamide]
IC50 [1]: 0.01 to 0.1 µM | IC50 [2]: < 0.01 µM | EC50 ([3]; Hepatitis C virus, 72 h): < 0.01 µM | EC50 ([4]; Hepatitis C virus, 72 h): < 0.01 µM

COC(=O)c1cc(NS(C)(=O)=O)ccc1/C=C/c1cc(-n2ccc(=O)[nH]c2=O)cc(C(C)(C)C)c1OC [IB-L1-1.7, (E)-methyl 2-(3-tert-butyl-5-(2,4-dioxo-3,4-dihydropyrimidin-1(2H)-yl)-2-methoxystyryl)-5-(methylsulfonamido)benzoate]
IC50 [1]: 0.01 to 0.1 µM | IC50 [2]: < 0.01 µM | EC50 ([3]; Hepatitis C virus, 72 h): < 0.01 µM | EC50 ([4]; Hepatitis C virus, 72 h): < 0.01 µM

COc1c(/C=C/c2ccc(NS(C)(=O)=O)cc2C=NO)cc(-n2ccc(=O)[nH]c2=O)cc1C(C)(C)C [IB-L1-1.8, N-[4-{(E)-2-[3-tert-Butyl-5-(2,4-dioxo-3,4-dihydro-2H-pyrimidin-1-yl)-2-methoxy-phenyl]-vinyl}-3-(hydroxyimino-methyl)-phenyl]-methanesulfonamide]
IC50 [1]: 0.01 to 0.1 µM | IC50 [2]: < 0.01 µM | EC50 ([3]; Hepatitis C virus, 72 h): 0.01 to 0.1 µM | EC50 ([4]; Hepatitis C virus, 72 h): < 0.01 µM
